Our source for the GI50 values is patent US20250136619A1, “HETEROBIFUNCTIONAL COMPOUNDS AND THEIR USE IN TREATING DISEASE” (HALDA THERAPEUTICS OPCO, INC., priority 2021, published 2025).

Read-outs that look alike come from different tables or passages of the source.

The subject of one experiment is HEK293 cells. The experiment is described as follows: Cellular growth inhibition assay (CellTiter-Glo), HEK293 cells. The experiment is classed as cell-based. As to conditions: Homo sapiens, read-out: CTG HEK293 GI50. Here is the method: (§1) HEK293 and HeLa cells were cultured in DMEM medium supplemented with 10% fetal bovine serum and 1% Penn/Strep. Cells were seeded in white 384-well plates at 500 cells/well in […] complete medium. Following seeding, plates were spun at 300×g for three minutes and cultured at 37° C. with 5% CO2 in a humidified tissue culture incubator.
(§2) After 24 hours, compounds were titrated in 100% DMSO and diluted in complete cell culture medium. […] of compound/media mixture was added to cells to bring total volume in well to […]. DMSO alone was used as a negative control. Plates were then spun at 300×g for three minutes and stored at 37° C. with 5% CO2 for three days.
(§3) On Day 0 and Day 3 of compound treatment, cell viability was quantified with CellTiter-Glo 2.0 reagent (Promega). After equilibrating microplates at room temperature for 30 minutes, 25 μL CellTiter-Glo 2.0 reagent was dispensed into each well to bring total volume to […]. Plates were mixed on shaker for 2 minutes at 500 rpm, followed by a 10-minute incubation at room temperature. Following a quick spin, luminescence readings were measured with an En Vision Plate Reader. Data was normalized to DMSO treated Day 0 and Day 3 readings. A four-parameter non-linear regression curve fit was applied to dose-response data in GraphPad Prism data analysis software to determine the half maximal growth inhibitory concentration (GI50) for each compound.
Background: Cellular ATP, detected with luciferase, serves as a proxy for viable cell number.

In the next experiment the test system is HeLa cells. Put plainly: Cellular growth inhibition assay (CellTiter-Glo), HeLa cells. The experiment is classed as cell-based. The settings on record: Homo sapiens, 72 h, read-out: CTG HELA GI50. The procedure: as §1, §2, §3
The mark [1] stands for this setting: 72 h, HEK293 cells, three days of compound treatment, CellTiter-Glo 2.0.
The mark [2] stands for this setting: HeLa cells, three days of compound treatment, CellTiter-Glo 2.0.

For orientation: GI50 means the concentration giving 50% growth inhibition. In the case of `CCNC(=O)C[C@@H]1N=C(c2ccc(OCCOCCOCC(=O)N3CC(=O)N(c4cc(C#N)ccn4)[C@H](C(=O)N(c4cc(F)cc(F)c4)[C@H](C(=O)NC4CC(F)(F)C4)c4ccccc4Cl)C3)cc2)c2c(sc(C)c2C)-n2c(C)nnc21` [Compound I-105, (2S)—N-[(1S)-1-(2-chlorophenyl)-2-[(3,3-difluorocyclobutyl)amino]-2-oxo-ethyl]-1-(4-cyano-2-pyridyl)-N-(3,5-difluorophenyl)-4-[2-[2-[2-[4-[(9S)-9-[2-(ethylamino)-2-oxo-ethyl]-4,5,13-trimethyl-3-thia-1,8,11,12-tetrazatricyclo[8.3.0.0^2,6]trideca-2 (6),4,7,10,12-pentaen-7-yl]phenoxy]ethoxy]ethoxy]acetyl]-6-oxo-piperazine-2-carboxamide], the GI50 with HEK293 cells (setting [1]) and in the experiment with HeLa cells (setting [2]) was > 5 µM each time.

In the case of `CCNC(=O)C[C@@H]1N=C(c2ccc(OCCOCCOCCOCCOCC(=O)N3CC(=O)N(c4cc(C#N)ccn4)[C@H](C(=O)N(c4cc(F)cc(F)c4)[C@H](C(=O)NC4CC(F)(F)C4)c4ccccc4Cl)C3)cc2)c2c(sc(C)c2C)-n2c(C)nnc21` [Compound I-106, (2S)—N-[(1S)-1-(2-chlorophenyl)-2-[(3,3-difluorocyclobutyl)amino]-2-oxo-ethyl]-1-(4-cyano-2-pyridyl)-N-(3,5-difluorophenyl)-4-[2-[2-[2-[2-[2-[4-[(9S)-9-[2-(ethylamino)-2-oxo-ethyl]-4,5,13-trimethyl-3-thia-1,8,11,12-tetrazatricyclo[8.3.0.0^2,6]trideca-2 (6),4,7, 10,12-pentaen-7-yl]phenoxy]ethoxy]ethoxy]ethoxy]ethoxy]acetyl]-6-oxo-piperazine-2-carboxamide], the GI50 with HEK293 cells (setting [1]) and in the experiment with HeLa cells (setting [2]) was > 5 µM in each case.

For the compound `CCS(=O)(=O)Nc1ccc(Oc2cccc(OCCOCCOCC(=O)N3CC(=O)N(c4cc(C#N)ccn4)[C@H](C(=O)N(c4cc(F)cc(F)c4)[C@H](C(=O)NC4CC(F)(F)C4)c4ccccc4Cl)C3)c2)c(-c2cn(C)c(=O)c3[nH]ccc23)c1` [Compound I-107, (2S)—N-[(1S)-1-(2-chlorophenyl)-2-[(3,3-difluorocyclobutyl)amino]-2-oxo-ethyl]-1-(4-cyano-2-pyridyl)-N-(3,5-difluorophenyl)-4-[2-[2-[2-[3-[4-(ethylsulfonylamino)-2-(6-methyl-7-oxo-1H-pyrrolo[2,3-c]pyridin-4-yl)phenoxy]phenoxy]ethoxy]ethoxy]acetyl]-6-oxo-piperazine-2-carboxamide], the GI50 was > 5 µM with HEK293 cells (setting [1]) and 0.5 to 1.5 µM in the experiment with HeLa cells (setting [2]).

Turning to `CCS(=O)(=O)Nc1ccc(Oc2cccc(OCCOCCOCCOCCOCC(=O)N3CC(=O)N(c4cc(C#N)ccn4)[C@H](C(=O)N(c4cc(F)cc(F)c4)C(C(=O)NC4CC(F)(F)C4)c4ccccc4Cl)C3)c2)c(-c2cn(C)c(=O)c3[nH]ccc23)c1` (stereo partly drawn) [Compound I-108, (2S)—N-[1-(2-chlorophenyl)-2-[(3,3-difluorocyclobutyl)amino]-2-oxo-ethyl]-1-(4-cyano-2-pyridyl)-N-(3,5-difluorophenyl)-4-[2-[2-[2-[2-[2-[3-[4-(ethylsulfonylamino)-2-(6-methyl-7-oxo-1 H-pyrrolo[2,3-c]pyridin-4-yl)phenoxy]phenoxy]ethoxy]ethoxy]ethoxy]ethoxy]acetyl]-6-oxo-piperazine-2-carboxamide], the results for the GI50 in the experiment with HEK293 cells (setting [1]) and in the experiment with HeLa cells (setting [2]) were > 5 µM and < 0.5 µM, respectively.

`CC(C)(C)c1[nH]cnc1/C=c1\[nH]c(=O)/c(=C/c2ccccc2)n(CCOCCOCC(=O)N2CC(=O)N(c3cc(C#N)ccn3)[C@H](C(=O)N(c3cc(F)cc(F)c3)[C@H](C(=O)NC3CC(F)(F)C3)c3ccccc3Cl)C2)c1=O` [Compound I-109, (2S)-4-[2-[2-[2-[(2Z,5Z)-2-benzylidene-5-[(5-tert-butyl-1H-imidazol-4-yl)methylene]-3,6-dioxo-piperazin-1-yl]ethoxy]ethoxy]acetyl]-N-[(1S)-1-(2-chlorophenyl)-2-[(3,3difluorocyclobutyl)amino]-2-oxo-ethyl]-1-(4-cyano-2-pyridyl)-N-(3,5-difluorophenyl)-6-oxo-piperazine-2-carboxamide]: the GI50 in the experiment with HEK293 cells (HEK293, 72 h) was > 5 µM; with HeLa cells (HeLa), > 5 µM.

For the compound `CC(C)(C)c1[nH]cnc1/C=c1\[nH]c(=O)/c(=C/c2ccccc2)n(CCOCCOCCOCCOCC(=O)N2CC(=O)N(c3cc(C#N)ccn3)[C@H](C(=O)N(c3cc(F)cc(F)c3)[C@H](C(=O)NC3CC(F)(F)C3)c3ccccc3Cl)C2)c1=O` [Compound I-110, (2S)-4-[2-[2-[2-[2-[2-[(2Z,5Z)-2-benzylidene-5-[(5-tert-butyl-1 H-imidazol-4-yl)methylene]-3,6-dioxo-piperazin-1-yl]ethoxy]ethoxy]ethoxy]ethoxy]acetyl]-N-[(1S)-1-(2-chlorophenyl)-2-[(3,3-difluorocyclobutyl)amino]-2-oxo-ethyl]-1-(4-cyano-2-pyridyl)-N-(3,5-difluorophenyl)-6-oxo-piperazine-2-carboxamide], the GI50 in the experiment with HEK293 cells (setting [1]) and with HeLa cells (setting [2]) was > 5 µM in each case.

As to `C[C@@H](Nc1ccc(C#N)n(C)c1=O)c1cc2cc(Cl)c(C3CC(OCCOCCOCCOCCOCCN(C)C(=O)N4N=C(c5cc(F)ccc5F)SC4(CCCN)c4ccccc4)C3)cc2[nH]c1=O` (stereo partly drawn) [Compound I-111, 2-(3-aminopropyl)-N-[2-[2-[2-[2-[2-[3-[6-chloro-3-[(1R)-1-[(6-cyano-1-methyl-2-oxo-3-pyridyl)amino]ethyl]-2-oxo-1H-quinolin-7-yl]cyclobutoxy]ethoxy]ethoxy]ethoxy]ethoxy]ethyl]-5-(2,5-difluorophenyl)-N-methyl-2-phenyl-1,3,4-thiadiazole-3-carboxamide], the values for the GI50 in the experiment on HEK293 cells (setting [1]) and with HeLa cells (setting [2]) were 1.5 to 5 µM and 0.5 to 1.5 µM, respectively.

As for `CN(CCNS(=O)(=O)c1cc(F)cc(N(C(=O)[C@@H]2CCC(=O)N2c2cc(C#N)ccn2)[C@H](C(=O)NC2CC(F)(F)C2)c2ccccc2Cl)c1)C(=O)N1N=C(c2cc(F)ccc2F)SC1(CCCN)c1ccccc1` (stereo partly drawn) [Compound I-112, 2-(3-aminopropyl)-N-[2-[[3-[[(1S)-1-(2-chlorophenyl)-2-[(3,3-difluorocyclobutyl)amino]-2-oxo-ethyl]-[(2S)-1-(4-cyano-2-pyridyl)-5-oxo-pyrrolidine-2-carbonyl]amino]-5-fluoro-phenyl]sulfonylamino]ethyl]-5-(2,5-difluorophenyl)-N-methyl-2-phenyl-1,3,4-thiadiazole-3-carboxamide], the results for the concentration for 50% growth inhibition (GI50) in the experiment with HEK293 cells (setting [1]) and with HeLa cells (setting [2]) were 1.5 to 5 µM and 0.5 to 1.5 µM, respectively.

In the case of `CN(CCNS(=O)(=O)c1cc(F)cc(N(C(=O)[C@@H]2CCC(=O)N2c2cc(C#N)ccn2)[C@@H](C(=O)NC2CC(F)(F)C2)c2ccccc2Cl)c1)C(=O)N1N=C(c2cc(F)ccc2F)SC1(CCCN)c1ccccc1` (stereo partly drawn) [Compound I-113, 2-(3-aminopropyl)-N-[2-[[3-[[(1R)-1-(2-chlorophenyl)-2-[(3,3-difluorocyclobutyl)amino]-2-oxo-ethyl]-[(2S)-1-(4-cyano-2-pyridyl)-5-oxo-pyrrolidine-2-carbonyl]amino]-5-fluoro-phenyl]sulfonylamino]ethyl]-5-(2,5-difluorophenyl)-N-methyl-2-phenyl-1,3,4-thiadiazole-3-carboxamide], the GI50 with HEK293 cells (setting [1]) and in the experiment on HeLa cells (setting [2]) was > 5 µM throughout.
